Test results taken from patent US6887492B2, “Magnesium plus interactive agent delivery” (Leiner Health Services Corp., priority 2000, dated 2005).

Assay: Dissolution times of calcium and magnesium in water at pH 7
Format: physicochemical
Conditions: water pH 7
Description: The dissolution times for calcium and magnesium were measured by dissolving each in a solution of water having a pH of 7. 331 mg of calcium was placed in a beaker containing the solution an allowed to dissolve. 165 mg of magnesium was then placed in a second beaker and dissolved. The results are listed below in Table 1 and shown graphically in FIG. 1.

Row | Dissolution, percent (%) (dissolution time 150 min) | Dissolution, percent (%) (dissolution time 180 min) | Dissolution, percent (%) (dissolution time 210 min) | Dissolution, percent (%) (dissolution time 240 min) | Dissolution, percent (%) (dissolution time 270 min) | Dissolution, percent (%) (dissolution time 300 min) | Dissolution, percent (%) (dissolution time 330 min) | Dissolution, percent (%) (dissolution time 360 min) | Compound | Dissolution, percent (%) (dissolution time 0 min) | Dissolution, percent (%) (dissolution time 15 min) | Dissolution, percent (%) (dissolution time 30 min) | Dissolution, percent (%) (dissolution time 45 min) | Dissolution, percent (%) (dissolution time 60 min) | Dissolution, percent (%) (dissolution time 75 min) | Dissolution, percent (%) (dissolution time 90 min) | Dissolution, percent (%) (dissolution time 105 min) | Dissolution, percent (%) (dissolution time 120 min)
1 | – | – | – | – | – | – | – | – | [Ca+2] [CALCIUM, calcium] | 0% | 99.7% | 98.79% | 98.19% | 99.09% | 96.79% | 97.89% | 100% | 99.09%
2 | 26.61% | 31.82% | 36.67% | 41.82% | 46.79% | 50.67% | 55.21% | 58.91% | [Mg+2] [MAGNESIUM, magnesium] | 0% | – | 4.93% | – | 10.61% | – | 16.48% | – | 21.76%
